Experimental data taken from ChEMBL document CHEMBL3351284, “Internalization and stability of a thymidylate synthase Peptide inhibitor in ovarian cancer cells” (J Med Chem, 2014).
Calls of active or inactive are those of the source. The calls are words filed in the database; no cut-off is given here.

Test system: C13
Assay: Growth inhibition of cisplatin-resistant human C13 cells at 5 uM after 72 hrs by flow-cytometric analysis
Type: functional, cell-based

O=c1[nH]cc(F)c(=O)[nH]1
growth inhibition (GI): Active
